Measured values published in ChEMBL document CHEMBL2073785, “The role of the efflux transporter P-glycoprotein in brain penetration of prednisolone” (J Endocrinol, 2002).

Biological target: ATP-dependent translocase ABCB1 (Homo sapiens, UniProt P08183)
Test: TP_TRANSPORTER: transepithelial transport (basal to apical) in MDR1-expressing LLC-PK1 cells
Type: functional, cell-based
Conditions: pig

Sequence of ATP-dependent translocase ABCB1 (P08183 whole entry): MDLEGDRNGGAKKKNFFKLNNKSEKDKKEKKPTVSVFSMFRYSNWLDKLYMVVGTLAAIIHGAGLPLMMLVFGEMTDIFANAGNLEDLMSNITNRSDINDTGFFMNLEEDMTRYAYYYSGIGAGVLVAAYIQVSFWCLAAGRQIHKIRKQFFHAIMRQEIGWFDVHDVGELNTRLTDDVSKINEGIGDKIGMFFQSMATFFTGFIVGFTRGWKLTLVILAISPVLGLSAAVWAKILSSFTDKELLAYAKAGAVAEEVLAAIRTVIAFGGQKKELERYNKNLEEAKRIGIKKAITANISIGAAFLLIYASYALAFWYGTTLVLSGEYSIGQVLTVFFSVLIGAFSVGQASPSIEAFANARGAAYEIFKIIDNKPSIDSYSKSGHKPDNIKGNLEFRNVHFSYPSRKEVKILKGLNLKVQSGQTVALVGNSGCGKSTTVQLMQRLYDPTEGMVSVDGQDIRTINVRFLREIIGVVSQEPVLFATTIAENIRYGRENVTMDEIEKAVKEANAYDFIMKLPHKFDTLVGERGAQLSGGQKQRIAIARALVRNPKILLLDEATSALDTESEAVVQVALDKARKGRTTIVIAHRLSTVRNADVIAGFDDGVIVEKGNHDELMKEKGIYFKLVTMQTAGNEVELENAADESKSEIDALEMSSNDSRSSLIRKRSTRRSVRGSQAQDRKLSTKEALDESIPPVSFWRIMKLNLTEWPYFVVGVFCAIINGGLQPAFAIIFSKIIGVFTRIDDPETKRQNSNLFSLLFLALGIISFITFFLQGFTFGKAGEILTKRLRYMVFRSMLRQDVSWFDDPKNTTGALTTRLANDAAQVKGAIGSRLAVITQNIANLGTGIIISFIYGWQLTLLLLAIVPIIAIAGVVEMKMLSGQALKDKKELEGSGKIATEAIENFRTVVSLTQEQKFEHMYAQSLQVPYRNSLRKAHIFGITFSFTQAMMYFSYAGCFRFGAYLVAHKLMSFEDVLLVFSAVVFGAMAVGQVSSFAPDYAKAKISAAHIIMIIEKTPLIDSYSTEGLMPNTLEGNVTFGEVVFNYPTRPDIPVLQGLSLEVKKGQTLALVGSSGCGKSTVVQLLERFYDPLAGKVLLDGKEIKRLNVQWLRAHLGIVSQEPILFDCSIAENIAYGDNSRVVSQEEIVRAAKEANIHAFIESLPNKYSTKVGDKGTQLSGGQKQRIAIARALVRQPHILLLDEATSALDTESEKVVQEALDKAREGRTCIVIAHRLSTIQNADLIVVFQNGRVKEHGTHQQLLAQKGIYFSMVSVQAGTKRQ

`C[C@]12CCC(=O)C=C1CC[C@@H]1[C@@H]2CC[C@@]2(C)[C@H]1CC[C@]2(O)C(=O)CO` [CORTODOXONE] was tested. Which Activity did it give?
Its Activity is “is not a substrate [-]”.
